Measurements published in US20240043943A1, “METHODS AND COMPOSITIONS FOR PROTEASE REPORTER ASSAYS AND MODULATORS” (712 NORTH, INC., priority 2021, published 2024).
“Also recorded” adds a separate entry of the source.

Key:
Luke-S1 reporter = assay: Rep#15 / Luke-S1 reporter cleavage in Hek293T cells by Western blot; assay type: cell-based, human; conditions: for cleavage of the Luke-S1 reporter in Western blots: 3 μM CCCP or 100 nM valinomycin
Protocol: For this example, transfected cells were selected by puromycin. […] […] If reporter #15 indeed is cleaved by OMA1, then phenanthroline should prevent this at least to a certain extend by inhibiting OMA1 and accordingly preserving the signal. Hek293T cells were transfected with reporter gene #15 as described in the preceding example. After 24 hours, the transfected cells were incubated with 500 μM phenanthroline in OptiMEM. After 1 hour of pretreatment, CCCP in OptiMEM/phenanthroline was added. to a final concentration of 10 μM CCCP and cells incubated for another 30 minutes at 37° C. After 30 minutes, the medium was replaced with furimazine (1:100 in OptiMEM), and bioluminescence measured as described in Example 1.
(§1) OPA1 hydrolysis can be monitored by Western blotting. […] The predicted size of full-length Luke-S1 is 31.8 kDa.

OMA1 protease [1] = target: T1, OMA1 protease (Homo sapiens, UniProt Q96E52); assay: Rep#15 / Luke-S1 OMA1 reporter bioluminescence assay in Hek293T cells; assay type: cell-based; design: The OMA1 enzyme is dormant under physiological cell culture conditions in these cells; endogenous in cells; host or cells: Hek293T cells, transiently or stably (Luke-S1 line, ATCC PTA-127022) expressing reporter #15
T1 sequence (Q96E52 144-524): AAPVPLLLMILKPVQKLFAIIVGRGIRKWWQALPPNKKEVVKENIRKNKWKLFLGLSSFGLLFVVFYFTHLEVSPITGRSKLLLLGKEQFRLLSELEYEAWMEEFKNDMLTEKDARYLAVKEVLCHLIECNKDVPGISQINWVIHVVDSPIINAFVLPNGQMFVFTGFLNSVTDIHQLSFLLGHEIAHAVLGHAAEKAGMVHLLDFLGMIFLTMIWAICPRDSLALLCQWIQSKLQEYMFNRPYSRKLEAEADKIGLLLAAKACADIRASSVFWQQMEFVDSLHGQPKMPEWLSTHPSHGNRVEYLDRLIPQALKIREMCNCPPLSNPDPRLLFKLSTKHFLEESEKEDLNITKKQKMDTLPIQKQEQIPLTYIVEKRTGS

OPA1 = OPA1 hydrolysis in Hek293T cells by Western blot; assay type: cell-based, human; conditions: 30 minutes
Description: as §1

OMA1 protease [2] = target: T1, OMA1 protease; assay: Screen of 166 FDA-approved cancer drugs and 390 natural products in Luke-S1 assays; assay type: cell-based; design: The OMA1 enzyme is dormant under physiological cell culture conditions in these cells; endogenous in cells; host or cells: Hek293T cells, transiently or stably (Luke-S1 line, ATCC PTA-127022) expressing reporter #15; conditions: valinomycin treated controls, ± SD
Protocol: Luke-S1 reporter cells were incubated with 10 μM of drugs for 60 minutes after which luciferase substrate was added and bioluminescence measured.

OMA1 protease [3] = target: T1, OMA1 protease; conditions: literature; cited from earlier work
Luke-TEV reporter [4] = assay: Luke-TEV control reporter bioluminescence assay in Hek293T cells; assay type: cell-based, human
Description: (§2) Luke-S1 is targeted to the mitochondrial inner membrane by an 86 amino acid portion of OPA1's […] with the protein sequence SEQ ID NO: 27 and the DNA sequence SEQ ID ID NO:28.

[5] = target: T2, Luke (native NanoLuc enzyme) (Oplophorus gracilirostris, UniProt Q9GV45, A31E/A60N/A81I/F95D/I117V/K70R/L54V/L99Q/M102K/N193R/P142E/Q151K/Q38R/Q45L/V71I/Y165I); assay: Luke (native NanoLuc) control cell bioluminescence assay in Hek293T cells; assay type: cell-based; conditions: for bioluminescence of Luke cells in dose-response: 30 minutes incubation
T2 construct: expressed in transfected cells
Description: as §2

Luke-TEV reporter [6] = assay: Luke-TEV reporter cleavage in Hek293T cells by Western blot; assay type: cell-based, human; conditions: 3 μM CCCP or 100 nM valinomycin
Description: as §1

OMA1 protease [7] = target: T1, OMA1 protease; assay: Rep#01 OMA1 reporter bioluminescence assay in Hek293T cells; assay type: cell-based; design: The OMA1 enzyme is dormant under physiological cell culture conditions in these cells; endogenous in cells; host or cells: Hek293T cells, transiently or stably (Luke-S1 line, ATCC PTA-127022) expressing reporter #15; conditions: 30 minutes exposure, CCCP 10 μM
Description: Example 1 provides a nonlimiting example of generation and use of a reporter of present invention and illustrates its function. To this end, generation and use of reporter gene #01 (SEQ ID NO: 01) and reporter gene #15 (SEQ ID NO: 15) are described and their function compared to each other. The general design of a reporter of present invention is illustrated in FIG. 1A and its working principle in FIG. 1B. A reporter in general, and reporter gene #01 and reporter gene #15 in particular, can be generated as follows. DNA sequences of a reporter may be codon-optimized in silico or by any other way for expression in a suitable host. DNA sequences of reporter genes #01 and #15 were codon-optimized for expression in humans (SEQ ID NO: 02 and SEQ ID NO: 16, respectively). The (optimized) sequences were synthesized and cloned into a pcDNA3.1 expression vector under the control of a CMV promotor (see FIG. 1 for an illustration of such vector). Of course, an expression system and a host should match for best results. The host in this example were Hek293T cells, which were maintained under standard culture conditions in DMEM with 10% Fetal Bovine Serum and 1% Pen/Strep. For an experiment, Hek293T cells were seeded in opaque white tissue-culture treated 96-well plates at 80% confluency and transfected with vectors carrying reporter gene #01 and reporter gene #15 and 24 hours later incubated for 30 minutes at 37° C. in OptiMEM or in OptiMEM with 10 μM CCCP. After 30 minutes, the OptiMEM cell-culture media was replaced with luciferase substrate (furimazine, Promega) diluted 1:100 in OptiMEM, and bioluminescence was measured with a Fluoroskan Ascent FL (Thermo Scientific) using a 517 nm single-pass filter and 200 milliseconds integration time. […]
Example 5 illustrates how mitochondrial toxicity can be measured with reporter and assays of present invention. […] Hek293T cells expressing reporter #01 and #15 were exposed to CCCP, tipranavir and sorafenib (in OptiMEM) for 30 minutes before the medium was replaced with furimazine (1:100), and bioluminescence measured.

OMA1 protease [8] = target: T1, OMA1 protease; assay: Rep#15 / Luke-S1 OMA1 reporter bioluminescence assay in Hek293T cells; assay type: cell-based; design: The OMA1 enzyme is dormant under physiological cell culture conditions in these cells; endogenous in cells; host or cells: Hek293T cells, transiently or stably (Luke-S1 line, ATCC PTA-127022) expressing reporter #15; conditions: Hek293T, 30 minutes exposure; CCCP 10 μM
Description: Example 1 provides a nonlimiting example of generation and use of a reporter of present invention and illustrates its function. To this end, generation and use of reporter gene #01 (SEQ ID NO: 01) and reporter gene #15 (SEQ ID NO: 15) are described and their function compared to each other. The general design of a reporter of present invention is illustrated in FIG. 1A and its working principle in FIG. 1B. A reporter in general, and reporter gene #01 and reporter gene #15 in particular, can be generated as follows. DNA sequences of a reporter may be codon-optimized in silico or by any other way for expression in a suitable host. DNA sequences of reporter genes #01 and #15 were codon-optimized for expression in humans (SEQ ID NO: 02 and SEQ ID NO: 16, respectively). The (optimized) sequences were synthesized and cloned into a pcDNA3.1 expression vector under the control of a CMV promotor (see FIG. 1 for an illustration of such vector). Of course, an expression system and a host should match for best results. The host in this example were Hek293T cells, which were maintained under standard culture conditions in DMEM with 10% Fetal Bovine Serum and 1% Pen/Strep. For an experiment, Hek293T cells were seeded in opaque white tissue-culture treated 96-well plates at 80% confluency and transfected with vectors carrying reporter gene #01 and reporter gene #15 and 24 hours later incubated for 30 minutes at 37° C. in OptiMEM or in OptiMEM with 10 μM CCCP. After 30 minutes, the OptiMEM cell-culture media was replaced with luciferase substrate (furimazine, Promega) diluted 1:100 in OptiMEM, and bioluminescence was measured with a Fluoroskan Ascent FL (Thermo Scientific) using a 517 nm single-pass filter and 200 milliseconds integration time. […] Reporter #01 comprises a large part of OPA1's amino-terminus as mitochondrial targeting sequence, which is cleaved by the mitochondrial processing peptidase upon mitochondrial import (see Example 2). Reporter #15 was initially envisioned as a control for reporter #01. Reporter #15 therefore lacks the first 66 amino acids of reporter #01 believed to be essential for mitochondrial import.
Example 5 illustrates how mitochondrial toxicity can be measured with reporter and assays of present invention. The OMA1-OPA1 pathway basically serves as a “canary-in-the-coalmine” for a mitochondrial deterioration. […] Hek293T cells expressing reporter #01 and #15 were exposed to CCCP, tipranavir and sorafenib (in OptiMEM) for 30 minutes before the medium was replaced with furimazine (1:100), and bioluminescence measured.
The following non-limiting examples illustrate in more details the in vivo assessment of OMA1 protease activity utilizing an artificial luciferase reporter of present invention stably expressed in Hek293T cells.

reporter #01 = assay: Rep#01 reporter hydrolysis in Hek293T cells by Western blot; assay type: cell-based, human; conditions: 10 μM CCCP, 30 minutes
Protocol: Example 2 refers to FIG. 4 and illustrates hydrolysis of reporter #01 and reporter #15. For this example, transfected cells were selected by puromycin. Reporter cells were exposed for 30 minutes to 10 μM CCCP before being harvested in RIPA buffer and subjected to 12% SDS-PAGE followed by Western-blotting. […] Full-length reporter #01 has a predicted size of 39.6 kDa but was not detected in Western blots. […] At the same time, reporter #15 is not processed upon import, but migrated at its expected size of 31.9 kDa. (Example 7 establishes mitochondrial import by showing co-migration of reporter #15 with OPA1 and OMA1 in mitochondria-enriched fractions.) Reporter #15 appears to be more abundant and stable, which may explain its better performance. […] This provides additional evidence that reporter #15 is indeed localized in mitochondria where it is recognized and hydrolyzed by OMA1. […] Therefore, phenanthroline was used as a positive control in the reporter assay. If reporter #15 indeed is cleaved by OMA1, then phenanthroline should prevent this at least to a certain extend by inhibiting OMA1 and accordingly preserving the signal. Hek293T cells were transfected with reporter gene #15 as described in the preceding example. […] After 30 minutes, the medium was replaced with furimazine (1:100 in OptiMEM), and bioluminescence measured as described in Example 1.

T2 sequence (Q9GV45 with tags, fused parts or gaps with the stated changes): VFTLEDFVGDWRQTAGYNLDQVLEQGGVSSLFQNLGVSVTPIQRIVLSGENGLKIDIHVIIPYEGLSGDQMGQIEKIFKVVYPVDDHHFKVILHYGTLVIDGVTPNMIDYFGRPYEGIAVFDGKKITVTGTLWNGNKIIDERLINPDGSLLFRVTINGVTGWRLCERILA

Row | Compound | cleavage of the Luke-S1 reporter in Western blots (Luke-S1 reporter) | real-time bioluminescence of Luke-S1 vs cells without valinomycin (OMA1 protease [1]; 100 nM valinomycin added with luciferase substrate, 25 minutes recording) | Luke-S1 signal in cells treated with OMA1 siRNA (OMA1 protease [1]; 100 nM valinomycin, 30 minutes) | Luke-S1 signal in cells treated with control siRNA (OMA1 protease [1]; 100 nM valinomycin, 30 minutes) | Luke-S1 signal in cells treated with OMA1 siRNA (OMA1 protease [1]; 100 nM valinomycin, 30 minutes, listed as Valinomycin) | L-OPA1 proteolysis in Western blots (OPA1; 0.1 μM (100 nM) valinomycin) | signal intensity normalized to untreated cells (100%) (OMA1 protease [2]) [%] | effect on OMA1 protease (OMA1 protease [3]) | real-time bioluminescence of Luke-TEV vs cells without valinomycin (Luke-TEV reporter [4]; 100 nM valinomycin added with luciferase substrate) | signal of Luke-TEV cells in dose-response (Luke-TEV reporter [4]; 30 minutes incubation) | real-time bioluminescence of Luke vs cells without valinomycin ([5]; 100 nM valinomycin added with luciferase substrate, after 10 minutes) | bioluminescence of Luke cells in dose-response [5] | cleavage of the Luke-TEV reporter in Western blots (Luke-TEV reporter [6]) | processing of reporter #15 in Western blot (Luke-S1 reporter; 10 μM CCCP, 30 minutes) | L-OPA1 proteolysis in Western blots (OPA1; 3 μM CCCP) | bioluminescence signal of reporter #01 (OMA1 protease [7]) | bioluminescence signal of reporter #15 (OMA1 protease [8]) | EC50 (Luke-TEV reporter [4]; Luke-TEV cells, 30 minutes incubation) [nM] | processing of reporter #01 in Western blot (reporter #01)
1 | CC(C)[C@@H]1NC(=O)[C@H](C)OC(=O)[C@@H](C(C)C)NC(=O)[C@@H](C(C)C)OC(=O)[C@H](C(C)C)NC(=O)[C@H](C)OC(=O)[C@@H](C(C)C)NC(=O)[C@@H](C(C)C)OC(=O)[C@H](C(C)C)NC(=O)[C@H](C)OC(=O)[C@@H](C(C)C)NC(=O)[C@@H](C(C)C)OC1=O [valinomycin] | induced cleavage of the Luke-S1 reporter; also recorded: induced Luke-S1 and Luke-TEV cleavage | marked signal reduction | no significant signal reduction | significant signal reduction | not in Luke-S1 cells treated with OMA1 siRNA | sufficed for OPA1 cleavage; also recorded: complete L-OPA1 proteolysis | 18.5 | can activate the OMA1 protease | much smaller difference | only a minor signal reduction | no notable differences | no effects | cleaved; also recorded: induced Luke-S1 and Luke-TEV cleavage |  |  |  |  |  | 
2 | N#CC(C#N)=NNc1cccc(Cl)c1 [CCCP, carbonyl cyanide m-chlorophenyl hydrazone] | induced cleavage of the Luke-S1 reporter; also recorded: induced Luke-S1 and Luke-TEV cleavage |  |  |  |  |  |  |  |  |  |  | completely eliminated | cleaved; also recorded: induced Luke-S1 and Luke-TEV cleavage | led to processing | complete disappearance of L-OPA1 isoforms; also recorded: complete L-OPA1 proteolysis | significantly reduced bioluminescence | significantly reduced or substantially absent luciferase activity; also recorded: abolished; also recorded: significantly reduced bioluminescence | 566 | led to processing
